Earlier results as cited in patent US5360612A, “Pharmaceutical compositions containing triazole derivatives for rectal administration” (Pfizer Inc., priority 1992, dated 1994).

Conditions: in vivo

**Q.** For CN[C@@H](C)[C@H](O)c1ccccc1 [ephedrine], which “bioavailability from suppository fatty bases” value is on record?
**A.** do not show good bioavailability
